Measurements published in patent publication US20150185241A1, “Tilidine Immunodetection” (Randox Laboratories Limited, priority 2013, published 2015).
Where a name gives a salt, the structure may show the parent alone.

Tests used:
[1] = system: tilidine-specific antibody raised from Immunogen-II; experiment: Competitive ELISA (Example 7): Ig fraction of antiserum raised to Immunogen II, hapten-HRP conjugate of Example 6 as detecting agent; assay type: binding
Experimental: (§1) The wells of an enhanced binding 96 well polystyrene microtitre plate were coated with the Ig fraction of the antiserum raised to Immunogen II (N-(carboxypropyl)nortilidine-BTG—example 5), diluted in 10 mMTris, pH 8.5 (125 μl/well). The appropriate antibody coating dilution was determined using standard ELISA checkerboard techniques. The plate was incubated for 2 hours at 37° C., washed 4 times over 10 minutes with Tris buffered saline, containing Tween 20 (TBST) and tapped dry. Standard solutions of tilidine hydrochloride (a mixture of the two trans isomers—the 1R, 2S and the 1S, 2R trans isomers) and nortilidine hydrochloride (a mixture of the two trans isomers—the 1R, 2S and the 1S, 2R trans isomers) were prepared in TBST at 0, 0.625 ng/ml, 1.25 ng/ml, 2.5 ng/ml, 5 ng/ml, 10 ng/ml, 20 ng/ml and 40 ng/ml and 50 μl of each was added to the appropriate wells. 75 μl of conjugate of example 6 (hapten-HRP), diluted in Tris buffer (pH7.2) containing EDTA, D-mannitol, sucrose, thimerosal and BSA was added to each of the wells. The appropriate dilution of conjugate was also determined using standard ELISA checkerboard techniques. The plate was incubated at 25° C. for 1 hour. Excess unbound conjugate was removed by washing 6 times over a 10-15 minute period with TBST. 125 μl of tetramethylbenzidine (TMB) substrate solution was added to each well of the plate that was then incubated for 20 minutes in the dark at room temperature. The reaction was terminated by the addition of 125 μl of 0.2M H2SO4 to each well. The absorbance was then measured at 450 nm using a microtitre plate reader.

[2] = system: tilidine-specific antibody raised from Immunogen-II; experiment: Competitive ELISA (Example 8): different Ig fraction of antiserum raised to Immunogen II, hapten-HRP conjugate of Example 6 as detecting agent; assay type: binding; conditions: for % cross-reactivity: relative to tilidine HCl = 100; for % cross-reactivity / IC50: different Ig fraction (Example 8); for IC50: standard concentration which produces 50% B/Bo
Experimental: as §1, with “with a different” for “with the”, “fraction (to that exemplified in Example 7)” for “fraction”, “and bisnortilidine” for “and nortilidine”, “0, 0.313 ng/ml,” for “0,”, “10” for “10 ng/ml, 20”, “and 20” for “and 40”

| Molecule | % cross-reactivity ([1]; relative to tilidine HCl = 100, Ig fraction of Example 7) [%] | % B/Bo ([1]; standard 0.625 ng/ml) [%] | % B/Bo ([1]; standard 1.250 ng/ml) [%] | % B/Bo ([1]; standard 2.500 ng/ml) [%] | % B/Bo ([1]; standard 5.000 ng/ml) [%] | % B/Bo ([1]; standard 10.000 ng/ml) [%] | % B/Bo ([1]; standard 20.000 ng/ml) [%] | % B/Bo ([1]; standard 40.000 ng/ml) [%] | IC50 ([1]; standard concentration which produces 50% B/Bo, Ig fraction of Example 7) [ng/mL] | % cross-reactivity [2] [%] | % B/Bo ([2]; standard 0.313 ng/ml) [%] | % B/Bo ([2]; standard 0.625 ng/ml) [%] | % B/Bo ([2]; standard 1.250 ng/ml) [%] | % B/Bo ([2]; standard 2.500 ng/ml) [%] | % B/Bo ([2]; standard 5.000 ng/ml) [%] | % B/Bo ([2]; standard 10.000 ng/ml) [%] | % B/Bo ([2]; standard 20.000 ng/ml) [%] | IC50 [2] [ng/mL] |
| --- | --- | --- | --- | --- | --- | --- | --- | --- | --- | --- | --- | --- | --- | --- | --- | --- | --- | --- |
| CCOC(=O)[C@]1(c2ccccc2)CCC=C[C@H]1N(C)C (racemic) [Tilidine HCl, (±)-trans-ethyl 2-(N,N-dimethylamino)-1-phenylcyclohex-3-enylcarboxylate] | 100 | 63 | 55 | 46 | 37 | 28 | 20 | 14 | 1.820 | 100 | 70 | 63 | 52 | 41 | 31 | 21 | 14 | 1.473 |
| (±)-trans-ethyl 2-amino-1-phenylcyclohex-3-enylcarboxylate [Bisnortilidine HCl] |  |  |  |  |  |  |  |  |  | 14.73 | 86 | 82 | 76 | 68 | 59 | 50 | 39 | 10.0 |
